Results: PMC9120013, “Ribosome inhibition by C9ORF72-ALS/FTD-associated poly-PR and poly-GR proteins revealed by cryo-EM” (Nature Communications, 2022)
Like-named read-outs stand apart in the source and are kept apart here. Ends that are not written are not given here.

How the values were obtained:
Format in all cases: biochemical
[1] = target: translation of nanoluciferase mRNA in rabbit reticulocyte lysates; test: Nanoluciferase mRNA translation in rabbit reticulocyte lysate, inhibitor preincubated 5 min before mRNA; settings: read-out: IC50 of translation inhibition
From the text: Rabbit reticulocyte lysates (RRL, Promega) were used to investigate the inhibition of translation by DPR proteins. We independently monitored translation of two mRNAs encoding non-homologous proteins of different lengths: nanoluciferase[71] and firefly luciferase. To measure the IC50s of the translational inhibitors cycloheximide (Akros Organics), harringtonine (AbCam), GDPCP (Jena Biosciences), PR20 and GR20, we monitored the translation of nanoluciferase mRNA in nuclease-treated RRL (Promega). […] Next, 10 ng/μl (final concentration) 6xhis-Nanoluciferase mRNA flanked with the 5'- and 3'-UTR from rabbit beta-globin[48] was added and the luminescence reactions were continuously measured by an Infinite m1000 pro microplate reader (Tecan) for 15 min at 30 °C. The 1st derivative of the luminescence reactions was determined in Prism 8 (GraphPad Software, LLC) and the maximum was identified and the mean of three maximums from independent experiments for each inhibitor was taken as the rate. The rates were plotted versus inhibitors concentration, and the plots were fitted in Prism 8 (GraphPad Software, LLC) to a 3-parameter inhibition model (Y = baseline + (max-baseline)/(1 + X/IC50)) to obtain the IC50 values where the baseline was constrained to 0. This procedure was modified to separate translation initiation from translation elongation by changing the time of addition of the inhibitors to ~300 s after mRNA addition when RLUs had reached a value of ~50,000. Here, the maximum of the first derivative was taken in the 2nd or later measurement taken after inhibitor addition.
(§1) The following additional controls indicate that DPR-induced changes in fluorescence were caused by translation inhibition.

[2] = system: firefly luciferase enzyme; test: Control: firefly luciferase enzyme activity in RRL without mRNA; settings: 1 µM added after 120 s to 40 nM enzyme in RRL; n=6
From the text: as §1
Supplementary Fig. 1. […]

rabbit 80S ribosomes = test: Kinetic peptidyl transfer (puromycin) assay on rabbit 80S ribosomes
From the text: To test the effects of PR20 on the mammalian peptidyl transferase, 80S ribosomes were purified from rabbit reticulocyte lysate (Green Hectares) and dissociated into 40S and 60S subunits as described in the section entitled “Cryo-EM complex of mammalian 80S ribosome with PR20”. A model leaderless mRNA fragment placing the AUG codon in the P-site and the UUC codon in the A site (CCAC AUG UUC CCCCCCCCCCCCCCCCCC), was synthesized by IDT. The 80S•mRNA•fMet-tRNA^fMet complex with PRn (where n = 10, 20, or 40) or GR20 was assembled as follows. one micrometer 60S subunit was mixed with the DPR (starting with the initial DPR concentration of 33x relative to its final concentration in the reaction) in Assembly Buffer containing 20 mM Tris-acetate (pH 7.0), 100 mM KOAc, 10 mM Mg(OAc)2, and the mixture was incubated for 5 min at 30 °C. […] 1095 nM [^35S]-fMet-tRNA^fMet and the 60S solution were added (0.5 volumes of the 40S solution), resulting in the following concentrations: 330 nM 60S, 400 nM 40S, 730 nM tRNA, 11 µM mRNA and 11x of final concentration of a DPR in the buffer (20 mM Tris-acetate (pH 7.0), 100 mM KOAc, 10 mM Mg(OAc)2). The solution was incubated for 5 min at 30 °C. The solution was diluted ten times with the same buffer, then puromycin (prepared in the same buffer) was added and time progress curves were recorded.
The kinetics of puromycin reaction on the 70S or 80S ribosomes were recorded and analyzed essentially as described. An aliquot (4.5 μl) of the complex prior to addition of puromycin was quenched in 30 μl of saturated MgSO4 in 0.1 M NaOAc to represent the zero-time point. Five microliters of 500 µM puromycin (in the same buffer as that used for the ribosomal complex) was added to 45 μl of the complex to initiate the reaction, yielding estimated final concentrations: 30 nM for the ribosome, 1 µM mRNA, 66 nM [^35S]-fMet-tRNA^fMet, 50 µM puromycin, and varying concentrations of PRn and GRn peptides, from 30 nM to 2 μM. After 6, 15, 30, 90 s, and 5, 15, 30, 60, and (for slower reactions) 180 min, 5-μl aliquots were quenched in 30 μl of saturated MgSO4 in 0.1 M NaOAc. All quenched samples were extracted with 700 μl ethyl-acetate. 600 μl of the extract were mixed with 3.5 ml of Econo-Safe scintillation cocktail (RPI), and the amount of released [^35S]-labeled dipeptide was measured for each time point using a scintillation counter (Beckman Coulter, Inc.).
All time progress curves were recorded in duplicates, using independently prepared 70S or 80S complexes. Reaction rates were calculated using single-exponential or double-exponential (80S complexes) regressions for different concentrations of PRn and GRn using GraphPad Prism 8. Hyperbola fitting in Gnuplot was used to derive apparent Ki-values.

E. coli 70S ribosomes = test: Erythromycin competition in the puromycin assay on 70S ribosomes; settings: 20 μM erythromycin and/or 2 μM PR20, 30 nM 70S, quenched at 300 s
Procedure: The assay was performed as described above for the puromycin kinetics, except that the 70S ribosomes were pre-incubated with 22 μM erythromycin for 5 min prior to adding PR20. The stock solution of erythromycin contained 2 mM erythromycin in ethanol, so the control reaction (70S with no erythromycin) and the reactions with erythromycin were prepared to contain the same amount of ethanol (1%). The final concentrations after addition of puromycin were: 30 nM 70S, 66 nM [^35S]-fMet-tRNA^fMet, 1 μM mRNA, 2 μM PR20 (no PR20 in the control reaction), 20 μM erythromycin (or no erythromycin in a control reaction), 50 µM puromycin (in 20 mM Tris-acetate (pH 7.0), 100 mM NH4OAc, 12 mM Mg(OAc)2 and 1% ethanol). Samples were quenched at 300 s when the uninhibited reaction had reached a plateau.

[3] = 50% RRL, 5-min preincubation at 30 °C before nanoluciferase mRNA, maximal rate vs concentration, n = 3, mean ± SEM

Compound | IC50 ([1]; 33% RRL) [µM] | IC50 [1, 3] [µM] | effect on firefly luciferase enzyme activity [2] | effect on peptidyl transfer on rabbit 80S (rabbit 80S ribosomes; 2 µM, n=2) | concentration at which inhibition of peptidyl transfer starts (rabbit 80S ribosomes; 30 nM 80S) | fMet-puromycin formed (E. coli 70S ribosomes; first column (replicate 1)) | fMet-puromycin formed (E. coli 70S ribosomes; second column (replicate 2))
N=C(N)NCCC[C@H](NC(=O)CNC(=O)[C@H](CCCNC(=N)N)NC(=O)CNC(=O)[C@H](CCCNC(=N)N)NC(=O)CNC(=O)[C@H](CCCNC(=N)N)NC(=O)CNC(=O)[C@H](CCCNC(=N)N)NC(=O)CNC(=O)[C@H](CCCNC(=N)N)NC(=O)CNC(=O)[C@H](CCCNC(=N)N)NC(=O)CNC(=O)[C@H](CCCNC(=N)N)NC(=O)CNC(=O)[C@H](CCCNC(=N)N)NC(=O)CNC(=O)[C@H](CCCNC(=N)N)NC(=O)CNC(=O)[C@H](CCCNC(=N)N)NC(=O)CNC(=O)[C@H](CCCNC(=N)N)NC(=O)CNC(=O)[C@H](CCCNC(=N)N)NC(=O)CNC(=O)[C@H](CCCNC(=N)N)NC(=O)CNC(=O)[C@H](CCCNC(=N)N)NC(=O)CNC(=O)[C@H](CCCNC(=N)N)NC(=O)CNC(=O)[C@H](CCCNC(=N)N)NC(=O)CNC(=O)[C@H](CCCNC(=N)N)NC(=O)CNC(=O)[C@H](CCCNC(=N)N)NC(=O)CNC(=O)[C@H](CCCNC(=N)N)NC(=O)CN)C(=O)O [GR20] | 0.425 | 0.64 | do not affect enzyme activity | inhibits peptidyl transfer | – | – | –
PRPRPRPRPRPRPRPRPRPRPRPRPRPRPRPRPRPRPRPR [PR20] | 0.325 | 0.84 | do not affect enzyme activity | – | ~ 100 nM | 254 | 277
